# Data: patent US4735961A, “Oxazoles and thiazoles containing an aminohydroxypropoxyphenyl moiety” (Merck & Co., Inc., priority 1985, dated 1988)
# System: β2 : β1 receptors
# Experiment: cardioselectivity, β2:β1 ratio (pulmonary versus cardiac effect, guinea pig trachea versus atria)
# Format: cell-based
# Details: ratio of pulmonary (β2) to cardiac (β1) effect; over 1 = cardioselective
# From the text: Expressed in different terms, a smaller amount of a compound of the invention is required to block isoproterenol-induced elevation in heart rate than is required to block the isoproterenol-induced relaxation of the bronchi. This cardioselectivity factor can be expressed as the ratio of ED50 for pulmonary effect (β2):ED50 for cardiac effect (β1). Where the β2 :β1 ratio is over 1, then the compound would be considered to have cardioselective activity.
row,SMILES,β2 :β1
1,"COc1ccc(CCNCC(O)COc2ccc(-c3ncco3)cc2)cc1OC (stereo not drawn) [Example 1, 2-p-[3-(3,4-Dimethoxyphenethylamino)-2-hydroxypropoxy]phenyl oxazole]",19
2,"COc1ccc(CCNC[C@H](O)COc2ccc(-c3nccs3)cc2)cc1OC [Example 2, (S) 2-p-[3-(3,4-Dimethoxyphenylethyl)amino-2-hydroxypropoxy]phenyl thiazole]",813
3,"OC(CNC1CC1)COc1ccc(-c2nccs2)cc1 (stereo not drawn) [Example 3, 2-[p-(3-Cyclopropylamino-2-hydroxypropoxy)phenyl]thiazole]",85
